Results reported in publication PMC6582486, “Stapled EGFR peptide reduces inflammatory breast cancer and inhibits additional HER-driven models of cancer” (Journal of Translational Medicine, 2019).
Where two headings read alike, the source gives them in different places. Where a SMILES comes first, the peptide text is derived from it. Bridges are numbered along the chain shown (N, C = ends). [ ]: non-standard residue; d: D form. R8 = C=CCCCCCC[C@@](C)(N)C(=O)O; S5 = C=CCCC[C@](C)(N)C(=O)O

Test: Plasma concentration after tail-vein injection (toxicokinetics);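 for SAH-EJ1 concentration in plasma, average: blood sampled on day 1 after the tail-vein injection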
Type: in vivo, CD-1 mice
Settings: for level at 0.5 h / level at 1 h: average ± SD, read-out: SAH-EJ1 concentration in plasma, average
Procedure: Toxicology was performed by IITRI. The study was conducted in compliance with the US Food and Drug Administration (FDA) good laboratory practice (GLP) Regulations (Code of Federal Regulations Title 21 Part 58) to evaluate the toxicokinetics, local tolerability, immunogenicity, and potential toxicity of SAH5-EJ1 following three times per week intravenous (IV) dosing for 28 days in mice. Male and female CD-1 IGS [Crl:CD1(ICR)] mice (135 per sex) were received from Wilmington, MA-based Charles River Laboratories, Inc.’s Kingston facility (Stone Ridge, NY).

CC[C@H](C)[C@H](NC(=O)[C@H](Cc1c[nH]cn1)NC(=O)[C@H](CCCNC(=N)N)NC(=O)[C@H](CCCNC(=N)N)NC(=O)[C@H](CCCNC(=N)N)NC(=O)[C@H](CCSC)NC(=O)[C@H](Cc1ccccc1)NC(=O)[C@H](C)NC(=O)[C@H](CCCNC(=N)N)NC(=O)[C@H](C)NC(=O)[C@H](CCC(N)=O)NC(=O)[C@H](CCCNC(=N)N)NC(=O)[C@H](C)NC(=O)[C@H](C)NC(=O)[C@H](C)NC(=O)[C@H](CCCNC(=N)N)NC(=O)[C@H](C)NC(=O)[C@@H](N)Cc1ccc(O)cc1)C(=O)N[C@H](C(=O)N[C@@H](CCCNC(=N)N)C(=O)N[C@@H](CCCCN)C(=O)N[C@@H](CCCNC(=N)N)C(=O)N[C@]1(C)CCCCCCC=CCCC[C@@](C)(C(=O)N[C@@H](CCCNC(=N)N)C(=O)N[C@@H](CCC(=O)O)C(N)=O)NC(=O)[C@H](CCC(N)=O)NC(=O)[C@H](CC(C)C)NC(=O)[C@H](CC(C)C)NC(=O)[C@H](CCCNC(=N)N)NC(=O)[C@H](CCCNC(=N)N)NC(=O)[C@H](CC(C)C)NC1=O)C(C)C [SAH5-EJ1] (H-YARAAARQARAFMRRRHIVRKR[R8]LRRLLQ[S5]RE-NH2; staple 23-30)
level at 0.5 h (CD-1, mouse, plasma, female, 10 mg/kg IV, day 1, 0.5 h): 0.562 ± 0.047 µg/mL
level at 1 h (CD-1, mouse, plasma, female, 10 mg/kg IV, day 1, 1 h): 0.542 ± 0.033 µg/mL
level at 0.5 h (CD-1, mouse, plasma, female, 15 mg/kg IV, day 1, 0.5 h): 0.554 ± 0.064 µg/mL
level at 1 h (CD-1, mouse, plasma, female, 15 mg/kg IV, day 1, 1 h): 0.569 ± 0.027 µg/mL
level at 0.5 h (CD-1, mouse, plasma, male, 10 mg/kg IV, day 1, 0.5 h): 0.638 ± 0.11 µg/mL
level at 1 h (CD-1, mouse, plasma, male, 10 mg/kg IV, day 1, 1 h): 0.665 ± 0.15 µg/mL
level at 0.5 h (CD-1 IGS [Crl:CD1(ICR)], mouse, plasma, female, 5 mg/kg IV, day 1, 0.5 h): 0.569 ± 0.019 µg/mL
level at 1 h (CD-1 IGS [Crl:CD1(ICR)], mouse, plasma, female, 5 mg/kg IV, day 1, 1 h): 0.529 ± 0.03 µg/mL
level at 0.5 h (CD-1 IGS [Crl:CD1(ICR)], mouse, plasma, male, 5 mg/kg IV, day 1, 0.5 h): 1.02 ± 0.35 µg/mL
level at 1 h (CD-1 IGS [Crl:CD1(ICR)], mouse, plasma, male, 5 mg/kg IV, day 1, 1 h): 0.576 ± 0.039 µg/mL
level at 0.5 h (CD-1 IGS [Crl:CD1(ICR)], mouse, plasma, male, 15 mg/kg IV, day 1, 0.5 h): 0.901 ± 0.16 µg/mL
level at 1 h (CD-1 IGS [Crl:CD1(ICR)], mouse, plasma, male, 15 mg/kg IV, day 1, 1 h): 0.657 ± 0.037 µg/mL
level at 2 h (CD-1 IGS [Crl:CD1(ICR)], plasma, male, 15 mg/kg IV, day 1, 2 h, mouse 2 of 3, read-out: SAH-EJ1 concentration in plasma): 0.551 µg/mL
time by which peptide was not detectable in plasma (female mice, highest body weight dosage): ≤ 2 h
SAH-EJ1 concentration in plasma (female, 5 mg/kg IV, day 1, 1 h, mouse 1 of 3): BQL (BQL represents below quantifiable limits (0.5 µg/mL))
SAH-EJ1 concentration in plasma (female, 5 mg/kg IV, day 1, 2 h, mouse 1 of 3): BQL (BQL represents below quantifiable limits (0.5 µg/mL))
SAH-EJ1 concentration in plasma (female, 5 mg/kg IV, day 1, 2 h, mouse 2 of 3): BQL (BQL represents below quantifiable limits (0.5 µg/mL))
SAH-EJ1 concentration in plasma (female, 5 mg/kg IV, day 1, 2 h, mouse 3 of 3): BQL (BQL represents below quantifiable limits (0.5 µg/mL))
SAH-EJ1 concentration in plasma (female, 5 mg/kg IV, day 1, 4 h, mouse 1 of 3): BQL (BQL represents below quantifiable limits (0.5 µg/mL))
SAH-EJ1 concentration in plasma (female, 5 mg/kg IV, day 1, 4 h, mouse 2 of 3): BQL (BQL represents below quantifiable limits (0.5 µg/mL))
SAH-EJ1 concentration in plasma (female, 5 mg/kg IV, day 1, 4 h, mouse 3 of 3): BQL (BQL represents below quantifiable limits (0.5 µg/mL))
SAH-EJ1 concentration in plasma (female, 5 mg/kg IV, day 1, 8 h, mouse 1 of 3): BQL (BQL represents below quantifiable limits (0.5 µg/mL))
SAH-EJ1 concentration in plasma (female, 5 mg/kg IV, day 1, 8 h, mouse 2 of 3): BQL (BQL represents below quantifiable limits (0.5 µg/mL))
SAH-EJ1 concentration in plasma (female, 5 mg/kg IV, day 1, 8 h, mouse 3 of 3): BQL (BQL represents below quantifiable limits (0.5 µg/mL))
SAH-EJ1 concentration in plasma (female, 5 mg/kg IV, day 1, 24 h, mouse 1 of 3): BQL (BQL represents below quantifiable limits (0.5 µg/mL))
SAH-EJ1 concentration in plasma (female, 5 mg/kg IV, day 1, 24 h, mouse 2 of 3): BQL (BQL represents below quantifiable limits (0.5 µg/mL))
SAH-EJ1 concentration in plasma (female, 5 mg/kg IV, day 1, 24 h, mouse 3 of 3): BQL (BQL represents below quantifiable limits (0.5 µg/mL))
SAH-EJ1 concentration in plasma (female, 10 mg/kg IV, day 1, 1 h, mouse 2 of 3): BQL (BQL represents below quantifiable limits (0.5 µg/mL))
SAH-EJ1 concentration in plasma (female, 10 mg/kg IV, day 1, 2 h, mouse 1 of 3): BQL (BQL represents below quantifiable limits (0.5 µg/mL))
SAH-EJ1 concentration in plasma (female, 10 mg/kg IV, day 1, 2 h, mouse 2 of 3): BQL (BQL represents below quantifiable limits (0.5 µg/mL))
SAH-EJ1 concentration in plasma (female, 10 mg/kg IV, day 1, 2 h, mouse 3 of 3): BQL (BQL represents below quantifiable limits (0.5 µg/mL))
SAH-EJ1 concentration in plasma (female, 10 mg/kg IV, day 1, 4 h, mouse 1 of 3): BQL (BQL represents below quantifiable limits (0.5 µg/mL))
SAH-EJ1 concentration in plasma (female, 10 mg/kg IV, day 1, 4 h, mouse 2 of 3): BQL (BQL represents below quantifiable limits (0.5 µg/mL))
SAH-EJ1 concentration in plasma (female, 10 mg/kg IV, day 1, 4 h, mouse 3 of 3): BQL (BQL represents below quantifiable limits (0.5 µg/mL))
SAH-EJ1 concentration in plasma (female, 10 mg/kg IV, day 1, 8 h, mouse 1 of 3): BQL (BQL represents below quantifiable limits (0.5 µg/mL))
SAH-EJ1 concentration in plasma (female, 10 mg/kg IV, day 1, 8 h, mouse 2 of 3): BQL (BQL represents below quantifiable limits (0.5 µg/mL))
SAH-EJ1 concentration in plasma (female, 10 mg/kg IV, day 1, 8 h, mouse 3 of 3): BQL (BQL represents below quantifiable limits (0.5 µg/mL))
SAH-EJ1 concentration in plasma (female, 10 mg/kg IV, day 1, 24 h, mouse 1 of 3): BQL (BQL represents below quantifiable limits (0.5 µg/mL))
SAH-EJ1 concentration in plasma (female, 10 mg/kg IV, day 1, 24 h, mouse 2 of 3): BQL (BQL represents below quantifiable limits (0.5 µg/mL))
SAH-EJ1 concentration in plasma (female, 10 mg/kg IV, day 1, 24 h, mouse 3 of 3): BQL (BQL represents below quantifiable limits (0.5 µg/mL))
SAH-EJ1 concentration in plasma (female, 15 mg/kg IV, day 1, 0.5 h, mouse 3 of 3): BQL (BQL represents below quantifiable limits (0.5 µg/mL))
SAH-EJ1 concentration in plasma (female, 15 mg/kg IV, day 1, 1 h, mouse 2 of 3): BQL (BQL represents below quantifiable limits (0.5 µg/mL))
SAH-EJ1 concentration in plasma (female, 15 mg/kg IV, day 1, 2 h, mouse 1 of 3): BQL (BQL represents below quantifiable limits (0.5 µg/mL))
SAH-EJ1 concentration in plasma (female, 15 mg/kg IV, day 1, 2 h, mouse 2 of 3): BQL (BQL represents below quantifiable limits (0.5 µg/mL))
SAH-EJ1 concentration in plasma (female, 15 mg/kg IV, day 1, 2 h, mouse 3 of 3): BQL (BQL represents below quantifiable limits (0.5 µg/mL))
SAH-EJ1 concentration in plasma (female, 15 mg/kg IV, day 1, 4 h, mouse 1 of 3): BQL (BQL represents below quantifiable limits (0.5 µg/mL))
